# Test results as given in patent US20240246942A1, “KINASE INHIBITORS FOR THE TREATMENT OF NEURODEGENERATIVE DISEASES” (priority 2020, published 2024).
# Read-outs that look alike come from different tables or passages of the source.
# Columns and labels:
# Test in all cases: biochemical
# [1] = target: T1, panel of 374 wild-type kinases (Homo sapiens, UniProt Q13164); conditions: read-out: % Enzyme Activity (relative to DMSO controls), ERK5/MAPK7
# T1 construct: purchased Reaction Biology Corporation
# T1 sequence (Q13164 whole entry): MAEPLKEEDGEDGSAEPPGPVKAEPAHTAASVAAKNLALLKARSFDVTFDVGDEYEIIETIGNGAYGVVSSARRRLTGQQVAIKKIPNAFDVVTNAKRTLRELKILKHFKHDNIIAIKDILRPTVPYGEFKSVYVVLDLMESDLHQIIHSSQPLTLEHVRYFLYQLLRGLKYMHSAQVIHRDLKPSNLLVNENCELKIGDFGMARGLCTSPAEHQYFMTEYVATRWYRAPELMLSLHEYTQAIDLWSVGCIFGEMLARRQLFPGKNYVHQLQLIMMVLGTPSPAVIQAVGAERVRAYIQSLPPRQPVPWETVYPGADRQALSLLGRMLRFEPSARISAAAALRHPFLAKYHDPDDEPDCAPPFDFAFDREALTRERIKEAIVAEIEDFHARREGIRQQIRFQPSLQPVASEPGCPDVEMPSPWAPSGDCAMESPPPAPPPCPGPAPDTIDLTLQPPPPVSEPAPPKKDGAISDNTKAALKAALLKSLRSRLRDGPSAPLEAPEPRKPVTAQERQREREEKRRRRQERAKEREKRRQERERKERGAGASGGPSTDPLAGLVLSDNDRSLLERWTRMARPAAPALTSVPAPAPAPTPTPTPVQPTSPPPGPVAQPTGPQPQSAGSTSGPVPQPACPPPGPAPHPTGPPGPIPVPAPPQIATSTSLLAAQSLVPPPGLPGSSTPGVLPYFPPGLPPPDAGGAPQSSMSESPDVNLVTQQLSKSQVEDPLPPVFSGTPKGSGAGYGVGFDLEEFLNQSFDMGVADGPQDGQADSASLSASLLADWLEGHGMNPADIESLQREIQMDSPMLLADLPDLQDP
# [2] = target: T2, panel of 374 wild-type kinases (Homo sapiens, UniProt Q6DT37); conditions: read-out: % Enzyme Activity (relative to DMSO controls), DMPK2
# T2 construct: purchased Reaction Biology Corporation
# T2 sequence (Q6DT37 whole entry): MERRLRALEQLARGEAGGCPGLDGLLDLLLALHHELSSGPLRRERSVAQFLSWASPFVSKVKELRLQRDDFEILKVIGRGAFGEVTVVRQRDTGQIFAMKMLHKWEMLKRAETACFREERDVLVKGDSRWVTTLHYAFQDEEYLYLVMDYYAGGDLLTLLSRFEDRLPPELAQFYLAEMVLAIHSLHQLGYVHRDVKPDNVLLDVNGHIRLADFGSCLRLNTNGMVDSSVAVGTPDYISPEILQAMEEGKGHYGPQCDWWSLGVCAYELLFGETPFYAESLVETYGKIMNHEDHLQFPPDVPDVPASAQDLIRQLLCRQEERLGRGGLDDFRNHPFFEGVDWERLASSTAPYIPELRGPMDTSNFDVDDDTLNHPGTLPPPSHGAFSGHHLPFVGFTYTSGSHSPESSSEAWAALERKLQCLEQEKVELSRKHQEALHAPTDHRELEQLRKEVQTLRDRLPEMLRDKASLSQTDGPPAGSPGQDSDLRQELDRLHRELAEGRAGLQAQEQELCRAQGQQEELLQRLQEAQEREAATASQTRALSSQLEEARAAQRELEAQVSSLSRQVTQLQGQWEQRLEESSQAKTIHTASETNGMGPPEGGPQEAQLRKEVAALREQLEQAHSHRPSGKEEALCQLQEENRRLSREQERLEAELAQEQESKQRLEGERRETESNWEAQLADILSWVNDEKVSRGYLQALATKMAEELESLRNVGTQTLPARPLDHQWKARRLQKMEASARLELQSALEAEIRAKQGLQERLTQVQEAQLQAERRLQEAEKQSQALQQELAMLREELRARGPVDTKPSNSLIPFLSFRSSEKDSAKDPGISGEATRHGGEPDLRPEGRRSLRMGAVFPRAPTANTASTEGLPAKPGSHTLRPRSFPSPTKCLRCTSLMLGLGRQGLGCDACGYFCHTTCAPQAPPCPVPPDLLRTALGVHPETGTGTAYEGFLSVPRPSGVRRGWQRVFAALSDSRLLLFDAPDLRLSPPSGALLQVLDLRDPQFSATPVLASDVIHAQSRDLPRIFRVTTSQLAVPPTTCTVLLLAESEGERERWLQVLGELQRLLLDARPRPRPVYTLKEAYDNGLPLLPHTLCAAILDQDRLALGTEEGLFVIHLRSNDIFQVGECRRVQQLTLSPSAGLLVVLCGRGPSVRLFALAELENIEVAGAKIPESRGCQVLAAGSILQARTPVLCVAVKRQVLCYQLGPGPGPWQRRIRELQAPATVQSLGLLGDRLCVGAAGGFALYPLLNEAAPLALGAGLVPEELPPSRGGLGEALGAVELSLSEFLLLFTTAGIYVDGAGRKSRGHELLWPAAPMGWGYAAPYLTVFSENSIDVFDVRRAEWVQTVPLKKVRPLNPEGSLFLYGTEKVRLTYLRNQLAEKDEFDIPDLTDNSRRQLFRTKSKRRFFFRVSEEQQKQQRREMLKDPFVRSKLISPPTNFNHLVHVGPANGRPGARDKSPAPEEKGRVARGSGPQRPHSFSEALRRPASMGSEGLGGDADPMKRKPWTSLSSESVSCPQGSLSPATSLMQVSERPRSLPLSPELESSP
# [3] = target: T3, panel of 374 wild-type kinases (Homo sapiens, UniProt P78368); conditions: read-out: % Enzyme Activity (relative to DMSO controls), CK1g2
# T3 construct: purchased Reaction Biology Corporation
# [4] = target: T4, panel of 374 wild-type kinases (Homo sapiens, UniProt Q00526)
# T4 construct: purchased Reaction Biology Corporation
# T4 sequence (Q00526 whole entry): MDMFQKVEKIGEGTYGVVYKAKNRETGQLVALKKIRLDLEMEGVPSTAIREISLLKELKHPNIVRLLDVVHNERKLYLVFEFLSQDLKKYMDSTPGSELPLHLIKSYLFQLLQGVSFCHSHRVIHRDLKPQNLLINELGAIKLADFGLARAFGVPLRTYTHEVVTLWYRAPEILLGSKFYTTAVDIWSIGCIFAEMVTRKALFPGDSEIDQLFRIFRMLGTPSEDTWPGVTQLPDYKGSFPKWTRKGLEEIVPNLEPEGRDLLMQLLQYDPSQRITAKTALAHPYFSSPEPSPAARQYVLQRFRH
# [5] = target: T5, panel of 374 wild-type kinases (Homo sapiens, UniProt P09619); conditions: read-out: % Enzyme Activity (relative to DMSO controls), kinase PDGFRb
# T5 construct: purchased Reaction Biology Corporation
# [6] = target: T6, panel of 374 wild-type kinases (Homo sapiens, UniProt Q12866); conditions: read-out: % Enzyme Activity (relative to DMSO controls), c-MER
# T6 construct: purchased Reaction Biology Corporation
# T6 sequence (Q12866 21-999): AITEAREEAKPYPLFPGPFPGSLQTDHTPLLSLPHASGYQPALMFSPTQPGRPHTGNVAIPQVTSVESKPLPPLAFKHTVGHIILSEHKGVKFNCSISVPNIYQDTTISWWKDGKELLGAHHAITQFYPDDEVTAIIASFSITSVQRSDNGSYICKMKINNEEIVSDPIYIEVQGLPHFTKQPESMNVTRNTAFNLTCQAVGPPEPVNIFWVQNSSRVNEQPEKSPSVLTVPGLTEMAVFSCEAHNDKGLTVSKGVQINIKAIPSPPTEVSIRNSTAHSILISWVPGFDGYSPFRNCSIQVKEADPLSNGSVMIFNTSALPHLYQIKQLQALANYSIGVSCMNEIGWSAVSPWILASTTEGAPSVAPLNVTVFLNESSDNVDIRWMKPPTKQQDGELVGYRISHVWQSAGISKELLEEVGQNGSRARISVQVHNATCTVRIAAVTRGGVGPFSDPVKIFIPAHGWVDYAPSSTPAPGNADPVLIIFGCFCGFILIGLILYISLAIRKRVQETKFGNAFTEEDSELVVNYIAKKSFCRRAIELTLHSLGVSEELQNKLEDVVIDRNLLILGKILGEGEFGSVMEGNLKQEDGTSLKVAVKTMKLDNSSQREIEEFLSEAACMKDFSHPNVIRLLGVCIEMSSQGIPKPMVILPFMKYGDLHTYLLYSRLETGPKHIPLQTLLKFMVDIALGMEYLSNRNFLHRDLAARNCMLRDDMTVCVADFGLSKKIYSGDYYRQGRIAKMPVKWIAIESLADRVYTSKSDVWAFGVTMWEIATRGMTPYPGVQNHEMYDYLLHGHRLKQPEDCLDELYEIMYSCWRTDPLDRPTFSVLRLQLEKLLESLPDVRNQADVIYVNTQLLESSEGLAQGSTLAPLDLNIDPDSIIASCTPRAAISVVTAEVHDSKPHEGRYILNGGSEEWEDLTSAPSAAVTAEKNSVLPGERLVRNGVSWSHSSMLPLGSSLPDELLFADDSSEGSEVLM
# [7] = target: T7, panel of 374 wild-type kinases (Homo sapiens, UniProt P37023); conditions: read-out: % Enzyme Activity (relative to DMSO controls), ALK1/ACVRL1
# T7 construct: purchased Reaction Biology Corporation
# [8] = target: T8, panel of 374 wild-type kinases (Homo sapiens, UniProt Q02779); conditions: read-out: % Enzyme Activity (relative to DMSO controls), MLK2/MAP3K10
# T8 construct: purchased Reaction Biology Corporation
# [9] = target: T9, panel of 374 wild-type kinases (Homo sapiens, UniProt Q9P0L2); conditions: read-out: % Enzyme Activity (relative to DMSO controls), MARK1
# T9 construct: purchased Reaction Biology Corporation
# [10] = target: T10, panel of 374 wild-type kinases (Homo sapiens, UniProt P36507); conditions: read-out: % Enzyme Activity (relative to DMSO controls), MEK2
# T10 construct: purchased Reaction Biology Corporation
# T10 sequence (P36507 whole entry): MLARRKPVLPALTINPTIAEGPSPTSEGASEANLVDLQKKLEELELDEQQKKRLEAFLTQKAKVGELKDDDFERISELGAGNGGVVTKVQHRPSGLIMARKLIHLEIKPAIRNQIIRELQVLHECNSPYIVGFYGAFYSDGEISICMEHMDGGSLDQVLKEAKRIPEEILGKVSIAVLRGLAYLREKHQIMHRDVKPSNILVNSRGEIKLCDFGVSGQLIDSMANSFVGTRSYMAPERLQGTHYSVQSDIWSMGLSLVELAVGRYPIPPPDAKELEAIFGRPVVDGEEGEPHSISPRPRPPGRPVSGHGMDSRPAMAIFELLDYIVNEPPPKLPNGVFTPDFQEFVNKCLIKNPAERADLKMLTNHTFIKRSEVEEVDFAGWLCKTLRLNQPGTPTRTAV
# [11] = target: T11, panel of 374 wild-type kinases (Homo sapiens, UniProt Q96RR4); conditions: read-out: % Enzyme Activity (relative to DMSO controls), CAMKK2
# T11 construct: purchased Reaction Biology Corporation
# [12] = target: T12, panel of 374 wild-type kinases (Homo sapiens, UniProt Q9Y5S2); conditions: read-out: % Enzyme Activity (relative to DMSO controls), MRCKb/CDC42BPB
# T12 construct: purchased Reaction Biology Corporation
# T12 sequence (Q9Y5S2 whole entry): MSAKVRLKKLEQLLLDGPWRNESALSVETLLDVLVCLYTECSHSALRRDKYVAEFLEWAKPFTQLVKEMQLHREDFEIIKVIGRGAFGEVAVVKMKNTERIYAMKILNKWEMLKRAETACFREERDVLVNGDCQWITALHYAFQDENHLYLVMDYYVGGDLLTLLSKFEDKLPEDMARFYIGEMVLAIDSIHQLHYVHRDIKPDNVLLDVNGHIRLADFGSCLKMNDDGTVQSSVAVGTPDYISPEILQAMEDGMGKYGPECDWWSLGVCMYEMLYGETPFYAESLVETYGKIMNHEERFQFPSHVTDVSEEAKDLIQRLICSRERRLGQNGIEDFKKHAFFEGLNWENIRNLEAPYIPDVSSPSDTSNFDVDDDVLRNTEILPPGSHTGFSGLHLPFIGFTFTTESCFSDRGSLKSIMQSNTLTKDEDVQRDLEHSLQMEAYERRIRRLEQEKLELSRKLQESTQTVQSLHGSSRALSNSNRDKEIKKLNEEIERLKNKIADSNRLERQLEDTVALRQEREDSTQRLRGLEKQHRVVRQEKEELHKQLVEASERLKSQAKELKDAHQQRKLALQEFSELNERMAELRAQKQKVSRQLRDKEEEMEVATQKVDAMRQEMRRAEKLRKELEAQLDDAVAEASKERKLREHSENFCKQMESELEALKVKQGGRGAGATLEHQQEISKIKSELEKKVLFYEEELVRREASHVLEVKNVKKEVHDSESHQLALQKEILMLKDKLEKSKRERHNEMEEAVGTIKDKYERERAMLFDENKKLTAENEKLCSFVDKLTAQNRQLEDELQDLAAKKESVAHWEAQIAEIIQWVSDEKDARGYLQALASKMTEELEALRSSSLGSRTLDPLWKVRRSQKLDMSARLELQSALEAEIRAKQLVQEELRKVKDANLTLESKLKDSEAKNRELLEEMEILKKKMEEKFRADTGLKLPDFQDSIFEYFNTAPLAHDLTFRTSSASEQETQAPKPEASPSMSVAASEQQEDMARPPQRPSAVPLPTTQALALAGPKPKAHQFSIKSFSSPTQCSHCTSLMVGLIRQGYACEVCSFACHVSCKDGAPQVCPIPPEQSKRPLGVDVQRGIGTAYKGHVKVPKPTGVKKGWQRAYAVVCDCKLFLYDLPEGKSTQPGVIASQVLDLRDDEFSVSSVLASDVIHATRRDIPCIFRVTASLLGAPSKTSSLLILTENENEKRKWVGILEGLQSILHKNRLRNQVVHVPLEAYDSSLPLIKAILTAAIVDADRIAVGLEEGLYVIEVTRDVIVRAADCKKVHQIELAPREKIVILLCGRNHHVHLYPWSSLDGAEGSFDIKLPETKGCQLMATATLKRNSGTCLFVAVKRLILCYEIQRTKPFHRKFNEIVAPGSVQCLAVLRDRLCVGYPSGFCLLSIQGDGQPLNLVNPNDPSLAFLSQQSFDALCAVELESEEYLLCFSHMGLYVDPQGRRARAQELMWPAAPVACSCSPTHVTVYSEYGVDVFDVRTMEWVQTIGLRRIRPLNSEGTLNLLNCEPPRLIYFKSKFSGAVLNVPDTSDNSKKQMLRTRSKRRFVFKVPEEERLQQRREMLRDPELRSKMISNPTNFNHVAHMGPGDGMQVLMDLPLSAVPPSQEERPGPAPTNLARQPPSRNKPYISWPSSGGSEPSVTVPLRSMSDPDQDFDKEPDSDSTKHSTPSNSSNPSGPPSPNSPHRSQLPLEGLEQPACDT
# [13] = read-out: % Enzyme Activity (relative to DMSO controls), CDK3/cyclin E2
# [14] = read-out: % Enzyme Activity (relative to DMSO controls), CDK3/cyclin E
Structure (SMILES),remaining activity at 5 µM [1] [%],remaining activity at 5 µM [2] [%],remaining activity at 5 µM [3] [%],"remaining activity at 5 µM [4, 13] [%]","remaining activity at 5 µM [4, 14] [%]",remaining activity at 5 µM [5] [%],remaining activity at 5 µM [6] [%],remaining activity at 5 µM [7] [%],remaining activity at 5 µM [8] [%],remaining activity at 5 µM [9] [%],remaining activity at 5 µM [10] [%],remaining activity at 5 µM [11] [%],remaining activity at 5 µM [12] [%],other results
"O=C(Nc1cnn(-c2csc(C(=O)NC3COC3)c2)c1)Nc1ccccc1Cl [Compound 17, 4-(4-(3-(2-chlorophenyl)ureido)-1H-pyrazol-1-yl)-N-(oxetan-3-yl)thiophene-2-carboxamide]",119,87,98.5,95.8,107,107,92.7,107,98.5,96.3,92.2,91.1,97.1,–
"O=C(Nc1cnn(-c2csc(C(=O)NC3COC3)c2)c1)Nc1c(F)cccc1Cl [Compound 25, 4-(4-(3-(2-chloro-6-fluorophenyl)ureido)-1H-pyrazol-1-yl)-N-(oxetan-3-yl)thiophene-2-carboxamide]",75.9,119,90.2,109,92.2,101,77.1,120,94.3,108,90.6,81,89,–
"Cc1sc(C(=O)NC2COC2)cc1-n1cc(NC(=O)Nc2c(F)cccc2Cl)cn1 [Compound 27, 4-(4-(3-(2-chloro-6-fluorophenyl)ureido)-1H-pyrazol-1-yl)-5-methyl-N-(oxetan-3-yl)thiophene-2-carboxamide]",–,–,–,–,–,–,–,–,–,–,–,–,–,"remaining activity at 10 µM ([1]; 10 uM): 95.7%; remaining activity at 10 µM ([2]; 10 uM): 118%; remaining activity at 10 µM ([3]; 10 uM): 104%; remaining activity at 10 µM [4, 13]: 103%; remaining activity at 10 µM [4, 14]: 91.2%; remaining activity at 10 µM ([5]; 10 uM): 97.9%; remaining activity at 10 µM ([6]; 10 uM): 103%; remaining activity at 10 µM ([7]; 10 uM): 78.7%; remaining activity at 10 µM ([8]; 10 uM): 90.8%; remaining activity at 10 µM ([9]; 10 uM): 95.3%; remaining activity at 10 µM ([10]; 10 uM): 99.5%; remaining activity at 10 µM ([11]; 10 uM): 111%; remaining activity at 10 µM ([12]; 10 uM): 112%"
